In patent US10899790B2, “Method for modifying T cell population” (OSAKA UNIVERSITY, priority 2016, dated 2021):

System: Healthy human-derived CD4+CD45RO+T cells
Test: Effect in vitro: CD62L and CD127 expression in cultured T cells by flow cytometry
Type: cell-based
Details: 20 μM; anti-CD3, anti-CD28, IL-2; vs DMSO control (FIG. 2)
Method: Healthy human-derived CD4^+CD45RO^+T cells (1×10^5) were cultured in the presence of anti-CD3 antibody (2 μg/ml), anti-CD28 antibody (2 μg/ml), IL-2 (20 IU/ml) and RDH10 inhibitors (Compound No. 16 (RDHI-032), Compound No. 17 (RDHI-033), and Compound No. 18 (RDHI-034)) (20 μM for each). In addition, DMSO was used as a control for the RDH10 inhibitor. After seven days […] resuspended in a fresh culture medium to which IL-2 was not added, and cultured for one more day. Thereafter, the expression of CD62L and CD127 in T cells was analyzed by flow cytometry. The culture solution used was X-VIVO15 to which AB serum was added to have a final concentration of 10%.

| SMILES | amplification of memory T cells (CD62L+CD127+T cells) |
| --- | --- |
| CC1(C)C(N)CC[C@]2(C)[C@H]3C(=O)C=C4[C@H]5C[C@@](C)(C(N)=O)CC[C@]5(C)CC[C@@]4(C)[C@]3(C)CC[C@@H]12 (stereo partly drawn) [Compound No. 19, (2S,4aS,6aS,6bR,8aR,12aS,12bR,14bS)-10-amino-2,4a,6a,6b,9,9,12a-heptamethyl-13-oxo-1,2,3,4,4a,5,6,6a,6b,7,8,8a,9,10,11,12,12a,12b,13,14b-icosahydropicene-2-carboxamide] | tended to amplify memory cells |
| COC(=O)[C@@]1(C)CC[C@]2(C)CC[C@]3(C)C(=CC(=O)[C@@H]4[C@@]5(C)CCC(NC(=O)Nc6ccccc6C(=O)O)C(C)(C)[C@@H]5CC[C@]43C)[C@H]2C1 (stereo partly drawn) [Compound No. 12, 2-(3-((4aR,6aR,6bS,8aS,11S,12aS,14aR,14bS)-11-(methoxycarbonyl)-4,4,6a,6b,8a,11,14b-heptamethyl-14-oxo-1,2,3,4,4a,5,6,6a,6b,7,8,8a,9,10,11,12,12a,14,14a,14b-icosahydropicen-3-yl)ureido)benzoic acid] | tended to amplify memory cells |
| CC1(C)C(N)CC[C@]2(C)[C@H]3C(=O)C=C4[C@H]5C[C@@](C)(C(=O)O)CC[C@]5(C)CC[C@@]4(C)[C@]3(C)CC[C@@H]12.Cl (stereo partly drawn) [Compound No. 20, (2S,4aS,6aS,6bR,8aR,12aS,12bR,14bS)-10-amino-2,4a,6a,6b,9,9,12a-heptamethyl-13-oxo-1,2,3,4,4a,5,6,6a,6b,7,8,8a,9,10,11,12,12a,12b,13,14b-icosahydropicene-2-carboxylic acid hydrochloride] | tended to amplify memory cells |
| COC(=O)[C@H](Cc1ccccc1)NC(=O)NC1CC[C@]2(C)[C@H]3C(=O)C=C4[C@H]5C[C@@](C)(C(=O)OC)CC[C@]5(C)CC[C@@]4(C)[C@]3(C)CC[C@H]2C1(C)C (stereo partly drawn) [Compound No. 11, (2S,4aS,6aS,6bR,8aR,12aS,12bR,14bS)-methyl 10-(3-((S)-1-methoxy-1-oxo-3-phenylpropan-2-yl)ureido)-2,4a,6a,6b,9,9,12a-heptamethyl-13-oxo-1,2,3,4,4a,5,6,6a,6b,7,8,8a,9,10,11,12,12a,12b,13,14b-icosahydropicene-2-carboxylate] | tended to amplify memory cells |
| CC1(C)C(N)CC[C@]2(C)[C@H]3C(=O)C=C4[C@@H]5C[C@@](C)(C(=O)O)CC[C@]5(C)CC[C@@]4(C)[C@]3(C)CC[C@@H]12.Cl (stereo partly drawn) [Compound No. 21, (2S,4aS,6aS,6bR,8aR,12aS,12bR,14bR)-10-amino-2,4a,6a,6b,9,9,12a-heptamethyl-13-oxo-1,2,3,4,4a,5,6,6a,6b,7,8,8a,9,10,11,12,12a,12b,13,14b-icosahydropicene-2-carboxylic acid hydrochloride] | tended to amplify memory cells |
| COC(=O)[C@@]1(C)CC[C@]2(C)CC[C@]3(C)C(=CC(=O)[C@@H]4[C@@]5(C)CCC(NC(=O)/C=C\C(=O)O)C(C)(C)[C@@H]5CC[C@]43C)[C@@H]2C1 (stereo partly drawn) [Compound No. 6, (Z)-4-((4aR,6aR,6bS,8aS,11S,12aR,14aR,14bS)-11-(methoxycarbonyl)-4,4,6a,6b,8a,11,14b-heptamethyl-14-oxo-1,2,3,4,4a,5,6,6a,6b,7,8,8a,9,10,11,12,12a,14,14a,14b-icosahydropicen-3-ylamino)-4-oxobut-2-enoic acid] | tended to amplify memory cells |
| CC1(C)C(=NO)CC[C@]2(C)[C@H]3C(=O)C=C4[C@H]5C[C@@](C)(C(N)=O)CC[C@]5(C)CC[C@@]4(C)[C@]3(C)CC[C@@H]12 [RDHI-038, (2S,4aS,6aS,6bR,8aR,12aS,12bR,14bS)-10-(hydroxyimino)-2,4a,6a,6b,9,9,12a-heptamethyl-13-oxo-1,2,3,4,4a,5,6,6a,6b,7,8,8a,9,10,11,12,12a,12b,13,14b-icosahydropicene-2-carboxamide] | tended to amplify memory cells |
| COC(=O)[C@@]1(C)CC[C@]2(C)CC[C@]3(C)C(=CC(=O)[C@@H]4[C@@]5(C)CCC(NC(=O)c6ccccc6C(=O)O)C(C)(C)[C@@H]5CC[C@]43C)[C@H]2C1 (stereo partly drawn) [Compound No. 3, 2-((4aR,6aR,6bS,8aS,11S,12aS,14aR,14bS)-11-(methoxycarbonyl)-4,4,6a,6b,8a,11,14b-heptamethyl-14-oxo-1,2,3,4,4a,5,6,6a,6b,7,8,8a,9,10,11,12,12a,14,14a,14b-icosahydropicen-3-ylcarbamoyl)benzoic acid] | tended to amplify memory cells |
| CC1(C)C(NC(=O)c2ccccc2C(=O)O)CC[C@]2(C)[C@H]3C(=O)C=C4[C@@H]5C[C@@](C)(C(=O)O)CC[C@]5(C)CC[C@@]4(C)[C@]3(C)CC[C@@H]12 (stereo partly drawn) [Compound No. 27, (2S,4aS,6aS,6bR,8aR,12aS,12bR,14bR)-10-(2-carboxybenzamide)-2,4a,6a,6b,9,9,12a-heptamethyl-13-oxo-1,2,3,4,4a,5,6,6a,6b,7,8,8a,9,10,11,12,12a,12b,13,14b-icosahydropicene-2-carboxylic acid] | tended to amplify memory cells |
